Measurements: the supplement of paper PMC10307832

Tests used:
Experiment in all cases: relative viability (nuclei count vs DMSO), 5 days (fraction); higher = more cells survive
[1] = compound: CC(C)CCN1c2nc(Nc3cc(F)c(O)c(F)c3)ncc2N(C)C(=O)C1C [BI-D1870] + CS(=O)(=O)N1CCN(Cc2cc3nc(-c4cccc5[nH]ncc45)nc(N4CCOCC4)c3s2)CC1 [Pictilisib] (partner 1 µM)
Method in brief: (§1)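 A single step with final 0.05% Triton X-100, 1% formaldehyde and 1 ug/ml Hoechst fixed the cells and stained nuclei 5 days after treatment. Lung cancer cell lines in 1536-well plates had been treated by pin tool the day after seeding with one drug alone or a fixed anchor-drug dose plus five library-drug doses (not always all listed) in √10 steps, and nuclei were counted on 4× images. Relative viability is the ratio of nuclei in treated wells to nuclei in vehicle wells, taken as the median of duplicate plates.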

[2] = compound: O=c1ncccn1[C@@H]1O[C@H](CO)[C@@H](O)[C@H]1O [Zebularine] + COc1cccc2cc(-c3nc([C@H]4CC[C@H](C(=O)O)CC4)n4ncnc(N)c34)[nH]c12 [OSI-027] (partner 0.5 µM)
Method in brief: as §1

[3] = compound: O=c1ncccn1[C@@H]1O[C@H](CO)[C@@H](O)[C@H]1O [Zebularine] + NC(=O)Nc1cc(-c2cccc(F)c2)sc1C(=O)N[C@H]1CCCNC1 [AZD7762] (partner 0.2 µM)
Method in brief: as §1

[4] = compound: CC(C)CCN1c2nc(Nc3cc(F)c(O)c(F)c3)ncc2N(C)C(=O)C1C [BI-D1870] + CCNC(=O)c1noc(-c2cc(C(C)C)c(O)cc2O)c1-c1ccc(CN2CCOCC2)cc1 [Luminespib] (partner 0.01 µM)
Method in brief: as §1

Cell Line	relative viability ([1]; first compound 0.04 µM)	relative viability ([1]; first compound 0.1265 µM)	relative viability ([1]; first compound 0.4 µM)	relative viability ([1]; first compound 1.265 µM)	relative viability ([1]; first compound 4 µM)	relative viability ([2]; first compound 1 µM)	relative viability ([2]; first compound 3.162 µM)	relative viability ([2]; first compound 10 µM)	relative viability ([2]; first compound 31.62 µM)	relative viability ([2]; first compound 100 µM)	relative viability ([3]; first compound 1 µM)	relative viability ([3]; first compound 3.162 µM)	relative viability ([3]; first compound 31.62 µM)	relative viability ([3]; first compound 100 µM)	relative viability ([3]; first compound 10 µM)	relative viability ([4]; first compound 0.04 µM)	relative viability ([4]; first compound 0.1265 µM)	relative viability ([4]; first compound 0.4 µM)	relative viability ([4]; first compound 1.265 µM)	relative viability ([4]; first compound 4 µM)
HCC-78	0.213	0.185	0.249	0.21	0.236	0.394	0.381	0.305	0.366	0.401	0.716	0.743	0.648	0.468						
HCC-366	0.157	0.159	0.0753	0.136	0.174	1.02	0.831	0.558	0.807	0.253	0.336	0.264	0.463	0.162	0.219					
IA-LM	0.406	0.294	0.268	0.196	0.106															
NCI-H520	0.317	0.275	0.348	0.36	0.233	0.281	0.23	0.266	0.298	0.239						0.207	0.209	0.243	0.22	0.194
NCI-H522						0.769	0.544	0.683	0.676	0.707	0.76	0.821	0.858	0.841	0.767	0.929	1.05	0.989	1.24	1.29
NCI-H661	0.377	0.44	0.36	0.505	0.313	0.794	0.671	0.591	0.764	0.627						0.961	0.935	0.988	1.01	0.877
NCI-H1299	0.801	0.774	0.653	0.514	0.19															
NCI-H1563	0.674	0.617	0.604	0.693	0.681	0.81	0.776	0.572	0.89	0.76						0.512	0.481	0.502	0.521	0.526
NCI-H1623						0.428	0.397	0.407	0.561	0.411						0.597	0.521	0.625	0.462	0.499
NCI-H1648						0.27	0.314	0.244	0.253	0.249	0.587	0.71	0.615	0.6	0.543					
NCI-H1650	0.632	0.484	0.527	0.533	0.558	0.842	0.663	0.285	0.834	0.416						0.197	0.212	0.193	0.212	0.2
NCI-H1703	0.256	0.245	0.234	0.213	0.209						0.144	0.173	0.142	0.103	0.118					
NCI-H2009	0.949	0.77	0.719	0.633	0.318	0.687	0.607	0.508	0.515	0.366						1.1	1.01	0.93	0.999	0.59
NCI-H2023	0.271	0.199	0.221	0.235	0.153	0.471	0.437	0.314	0.457	0.302						1.03	0.48	0.685	0.795	0.385
NCI-H2228	0.395	0.356	0.448	0.468	0.225	0.604	0.514	0.284	0.607	0.275						0.142	0.131	0.146	0.157	0.127
NCI-H2342						0.709	0.621	0.589	0.626	0.627	0.512	0.415	0.505	0.429	0.399	0.706	0.718	0.711	0.758	0.907
SK-LU-1	0.543	0.544	0.604	0.576	0.343	0.369	0.359	0.31	0.291	0.302						0.178	0.17	0.207	0.224	0.179
SK-MES-1	0.345	0.332	0.291	0.308	0.23	0.707	0.606	0.454	0.514	0.288						0.904	0.649	0.66	0.535	0.251
SW 900						0.842	0.621	0.306	0.543	0.427	0.65	0.57	0.818	0.832		0.193	0.192	0.18	0.175	0.158
SW 1573	0.6	0.414	0.47	0.402	0.368	0.603	0.606		0.506	0.443						0.219	0.172	0.297	0.191	0.143
